Experimental data reported in PMC5392334, “Discovery and characterization of a novel irreversible EGFR mutants selective and potent kinase inhibitor CHMFL-EGFR-26 with a distinct binding mode” (Oncotarget, 2017).
“And” between values parts separate entries of the source, which are not always exact repeats. Equal entries are not always repeated.

Experiments:
HIPK4 = biological target: T1, HIPK4 (Homo sapiens, UniProt Q8NE63); test: KinomeScan; type: binding; conditions: read-out: % control
T1 construct: purchased DiscoveRx KINOMEscan

NEK1 = biological target: T2, NEK1 (Homo sapiens, UniProt Q96PY6); test: KinomeScan; type: binding; conditions: read-out: % control
T2 construct: purchased DiscoveRx KINOMEscan

PAK3 = biological target: T3, PAK3 (Homo sapiens, UniProt O75914); test: KinomeScan; type: binding; conditions: read-out: % control
T3 construct: purchased DiscoveRx KINOMEscan

MAP3K15 = biological target: T4, MAP3K15 (Homo sapiens, UniProt Q6ZN16); test: KinomeScan; type: binding; conditions: read-out: % control
T4 construct: purchased DiscoveRx KINOMEscan

CDC2L5 = biological target: T5, CDC2L5 (Homo sapiens, UniProt Q14004); test: KinomeScan; type: binding; conditions: read-out: % control
T5 construct: purchased DiscoveRx KINOMEscan

BIKE = biological target: T6, BIKE (Homo sapiens, UniProt Q9NSY1); test: KinomeScan; type: binding; conditions: read-out: % control
T6 construct: purchased DiscoveRx KINOMEscan

PIK3CA(M1043I) = biological target: T7, PIK3CA(M1043I) (Homo sapiens, UniProt P42336, M1043I); test: KinomeScan; type: binding; conditions: read-out: % control
T7 construct: purchased DiscoveRx KINOMEscan

ULK1 = biological target: T8, ULK1 (Homo sapiens, UniProt O75385); test: KinomeScan; type: binding; conditions: read-out: % control
T8 construct: purchased DiscoveRx KINOMEscan

BLK = biological target: T9, BLK (Homo sapiens, UniProt P51451); test: KinomeScan; type: binding; conditions: read-out: % control
T9 construct: purchased Invitrogen (SelectScreen service)

PAK1 = biological target: T10, PAK1 (Homo sapiens, UniProt Q13153); test: KinomeScan; type: binding; conditions: read-out: % control
T10 construct: purchased DiscoveRx KINOMEscan

MLCK = biological target: T11, MLCK (Homo sapiens, UniProt Q32MK0); test: KinomeScan; type: binding; conditions: read-out: % control
T11 construct: purchased DiscoveRx KINOMEscan

NEK9 = biological target: T12, NEK9 (Homo sapiens, UniProt Q8TD19); test: KinomeScan; type: binding; conditions: read-out: % control
T12 construct: purchased DiscoveRx KINOMEscan

PRKCH = biological target: T13, PRKCH (Homo sapiens, UniProt P24723); test: KinomeScan; type: binding; conditions: read-out: % control
T13 construct: purchased DiscoveRx KINOMEscan

WNK1 = biological target: T14, WNK1 (Homo sapiens, UniProt Q9H4A3); test: KinomeScan; type: binding; conditions: read-out: % control
T14 construct: purchased DiscoveRx KINOMEscan

CDC2L2 = biological target: T15, CDC2L2 (Homo sapiens, UniProt Q9UQ88); test: KinomeScan; type: binding; conditions: read-out: % control
T15 construct: purchased DiscoveRx KINOMEscan

LCK = biological target: T16, LCK (Homo sapiens, UniProt P06239); test: KinomeScan; type: binding; conditions: read-out: % control
T16 construct: purchased DiscoveRx KINOMEscan
T16 sequence (P06239 whole entry): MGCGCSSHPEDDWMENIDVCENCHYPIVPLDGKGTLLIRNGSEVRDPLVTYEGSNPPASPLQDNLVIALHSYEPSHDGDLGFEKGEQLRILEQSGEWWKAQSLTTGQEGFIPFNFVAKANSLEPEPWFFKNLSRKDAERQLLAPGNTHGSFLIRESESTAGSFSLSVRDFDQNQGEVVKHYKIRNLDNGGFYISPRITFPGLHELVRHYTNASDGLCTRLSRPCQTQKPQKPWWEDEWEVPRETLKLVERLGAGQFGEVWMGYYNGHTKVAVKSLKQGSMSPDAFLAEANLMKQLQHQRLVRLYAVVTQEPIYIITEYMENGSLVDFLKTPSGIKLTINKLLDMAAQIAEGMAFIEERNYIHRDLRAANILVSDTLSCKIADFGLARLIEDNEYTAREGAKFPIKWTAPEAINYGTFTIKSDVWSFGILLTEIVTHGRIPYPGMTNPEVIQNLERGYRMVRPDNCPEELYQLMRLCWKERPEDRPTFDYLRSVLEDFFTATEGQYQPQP

FER = biological target: T17, FER (Homo sapiens, UniProt P16591); test: KinomeScan; type: binding; conditions: read-out: % control
T17 construct: purchased DiscoveRx KINOMEscan

NEK10 = biological target: T18, NEK10 (Homo sapiens, UniProt Q6ZWH5); test: KinomeScan; type: binding; conditions: read-out: % control
T18 construct: purchased DiscoveRx KINOMEscan

TNK1 = biological target: T19, TNK1 (Homo sapiens, UniProt Q13470); test: KinomeScan; type: binding; conditions: read-out: % control
T19 construct: purchased DiscoveRx KINOMEscan
T19 sequence (Q13470 whole entry): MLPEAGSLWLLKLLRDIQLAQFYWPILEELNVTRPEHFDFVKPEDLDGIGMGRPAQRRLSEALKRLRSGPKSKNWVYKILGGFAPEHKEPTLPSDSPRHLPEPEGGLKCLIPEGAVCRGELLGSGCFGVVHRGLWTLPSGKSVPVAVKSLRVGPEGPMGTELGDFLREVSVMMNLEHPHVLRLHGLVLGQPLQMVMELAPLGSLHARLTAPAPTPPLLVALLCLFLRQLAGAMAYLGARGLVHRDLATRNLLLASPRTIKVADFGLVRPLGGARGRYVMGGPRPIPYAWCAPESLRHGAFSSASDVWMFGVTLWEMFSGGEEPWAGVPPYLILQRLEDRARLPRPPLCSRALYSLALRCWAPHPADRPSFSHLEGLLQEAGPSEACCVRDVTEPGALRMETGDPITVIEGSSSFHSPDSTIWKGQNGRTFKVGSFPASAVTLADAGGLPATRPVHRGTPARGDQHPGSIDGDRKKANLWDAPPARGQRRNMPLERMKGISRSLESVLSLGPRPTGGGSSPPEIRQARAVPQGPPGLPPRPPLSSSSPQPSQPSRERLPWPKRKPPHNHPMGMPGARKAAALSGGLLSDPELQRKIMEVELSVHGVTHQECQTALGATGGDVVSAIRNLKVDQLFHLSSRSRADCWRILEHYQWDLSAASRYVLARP

p38-delta = biological target: T20, p38-delta (Homo sapiens, UniProt O15264); test: KinomeScan; type: binding; conditions: read-out: % control
T20 construct: purchased DiscoveRx KINOMEscan

MET(Y1235D) = biological target: T21, MET(Y1235D) (Homo sapiens, UniProt P08581, Y1235D); test: KinomeScan; type: binding; conditions: read-out: % control
T21 construct: purchased DiscoveRx KINOMEscan

TEC = biological target: T22, TEC (Homo sapiens, UniProt P42680); test: KinomeScan; type: binding; conditions: read-out: % control
T22 construct: purchased DiscoveRx KINOMEscan

CDK11 = biological target: T23, CDK11 (Homo sapiens, UniProt Q9BWU1); test: KinomeScan; type: binding; conditions: read-out: % control
T23 construct: purchased DiscoveRx KINOMEscan

EGFR(ErbB1) = EGFR(ErbB1) (Homo sapiens, UniProt P00533); test: SelectScreen biochemical assay
EGFR(ErbB1), sequence (P00533 25-1210): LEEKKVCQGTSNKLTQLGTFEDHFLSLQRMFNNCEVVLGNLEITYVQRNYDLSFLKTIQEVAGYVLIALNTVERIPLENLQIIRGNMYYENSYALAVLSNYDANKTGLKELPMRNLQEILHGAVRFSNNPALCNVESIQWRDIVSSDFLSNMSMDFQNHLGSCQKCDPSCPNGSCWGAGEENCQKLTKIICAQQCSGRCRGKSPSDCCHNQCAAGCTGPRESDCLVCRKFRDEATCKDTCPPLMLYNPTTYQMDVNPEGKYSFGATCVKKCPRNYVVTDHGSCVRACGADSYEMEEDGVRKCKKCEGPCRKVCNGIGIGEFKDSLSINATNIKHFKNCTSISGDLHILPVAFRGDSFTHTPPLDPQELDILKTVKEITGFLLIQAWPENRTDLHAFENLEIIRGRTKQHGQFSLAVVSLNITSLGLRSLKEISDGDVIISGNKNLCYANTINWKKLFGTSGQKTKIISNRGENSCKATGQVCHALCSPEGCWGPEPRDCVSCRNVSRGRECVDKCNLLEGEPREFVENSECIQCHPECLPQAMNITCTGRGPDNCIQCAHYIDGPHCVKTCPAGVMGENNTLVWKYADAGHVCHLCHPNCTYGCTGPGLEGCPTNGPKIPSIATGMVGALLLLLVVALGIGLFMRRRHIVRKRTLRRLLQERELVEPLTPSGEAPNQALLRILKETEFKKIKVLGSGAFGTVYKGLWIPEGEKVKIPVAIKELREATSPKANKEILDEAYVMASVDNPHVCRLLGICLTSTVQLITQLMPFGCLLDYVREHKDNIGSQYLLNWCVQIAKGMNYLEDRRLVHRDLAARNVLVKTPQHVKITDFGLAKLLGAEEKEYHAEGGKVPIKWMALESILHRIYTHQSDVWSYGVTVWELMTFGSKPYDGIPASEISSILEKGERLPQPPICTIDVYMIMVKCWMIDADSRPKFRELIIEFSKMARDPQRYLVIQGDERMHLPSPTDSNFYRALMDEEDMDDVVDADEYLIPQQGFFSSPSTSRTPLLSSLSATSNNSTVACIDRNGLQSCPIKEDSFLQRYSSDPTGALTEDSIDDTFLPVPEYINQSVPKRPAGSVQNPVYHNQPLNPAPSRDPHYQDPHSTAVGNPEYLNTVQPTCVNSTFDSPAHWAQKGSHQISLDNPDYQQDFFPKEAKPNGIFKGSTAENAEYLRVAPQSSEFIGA
Text: The enzymatic inhibition result of CHMFL-EGFR-26 was detected by SelectScreen techonology (Life Technologies).

NLK = biological target: T24, NLK (Homo sapiens, UniProt Q9UBE8); test: KinomeScan; type: binding; conditions: read-out: % control
T24 construct: purchased DiscoveRx KINOMEscan

BaF3-TEL-EGFR-L858R = test: Anti-proliferation, BaF3 isogenic cell lines (CellTiter-Glo); type: cell-based; conditions: Mus musculus, 72 hours, triplet testing
PLK3 = biological target: T25, PLK3 (Homo sapiens, UniProt Q9H4B4); test: KinomeScan; type: binding; conditions: read-out: % control
T25 construct: purchased DiscoveRx KINOMEscan
T25 sequence (Q9H4B4 whole entry): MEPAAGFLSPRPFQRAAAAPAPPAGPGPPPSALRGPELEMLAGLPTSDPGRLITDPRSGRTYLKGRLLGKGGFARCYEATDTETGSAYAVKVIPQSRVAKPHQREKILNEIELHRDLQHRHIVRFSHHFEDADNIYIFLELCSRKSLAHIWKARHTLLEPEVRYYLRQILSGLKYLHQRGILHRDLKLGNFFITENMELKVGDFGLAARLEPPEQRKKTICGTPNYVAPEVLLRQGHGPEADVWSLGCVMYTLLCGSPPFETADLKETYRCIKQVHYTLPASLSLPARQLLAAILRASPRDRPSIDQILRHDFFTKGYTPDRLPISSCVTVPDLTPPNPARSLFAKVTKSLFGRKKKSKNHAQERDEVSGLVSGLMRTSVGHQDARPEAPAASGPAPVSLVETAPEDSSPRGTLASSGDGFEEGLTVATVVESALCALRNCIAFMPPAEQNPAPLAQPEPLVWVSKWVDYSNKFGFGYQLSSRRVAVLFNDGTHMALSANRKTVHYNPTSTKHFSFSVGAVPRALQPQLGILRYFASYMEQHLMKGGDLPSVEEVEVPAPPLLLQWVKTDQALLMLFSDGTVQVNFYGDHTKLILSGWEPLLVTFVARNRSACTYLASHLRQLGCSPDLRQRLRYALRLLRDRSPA

IKK-beta = biological target: T26, IKK-beta (Homo sapiens, UniProt O14920); test: KinomeScan; type: binding; conditions: read-out: % control
T26 construct: purchased DiscoveRx KINOMEscan

CAMKK2 = biological target: T27, CAMKK2 (Homo sapiens, UniProt Q96RR4); test: KinomeScan; type: binding; conditions: read-out: % control
T27 construct: purchased DiscoveRx KINOMEscan

PLK2 = biological target: T28, PLK2 (Homo sapiens, UniProt Q9NYY3); test: KinomeScan; type: binding; conditions: read-out: % control
T28 construct: purchased DiscoveRx KINOMEscan

[1] = biological target: T29, TYK2(JH1domain-catalytic) (Homo sapiens, UniProt P29597); test: KinomeScan; type: binding; conditions: read-out: % control
T29 construct: TYK2(JH1domain-catalytic); purchased DiscoveRx KINOMEscan
T29 sequence (P29597 871-1187 limits assumed): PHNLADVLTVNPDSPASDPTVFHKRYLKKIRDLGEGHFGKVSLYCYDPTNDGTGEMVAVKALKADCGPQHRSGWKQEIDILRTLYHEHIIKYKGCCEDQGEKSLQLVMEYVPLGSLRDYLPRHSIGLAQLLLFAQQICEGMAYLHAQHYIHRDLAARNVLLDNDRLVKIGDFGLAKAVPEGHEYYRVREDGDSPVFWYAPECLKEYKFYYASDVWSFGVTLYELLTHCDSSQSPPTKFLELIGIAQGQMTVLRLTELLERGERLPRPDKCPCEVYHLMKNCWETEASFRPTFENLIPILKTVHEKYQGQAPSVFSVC

ERK8 = biological target: T30, ERK8 (Homo sapiens, UniProt Q8TD08); test: KinomeScan; type: binding; conditions: read-out: % control
T30 construct: purchased DiscoveRx KINOMEscan

PLK4 = biological target: T31, PLK4 (Homo sapiens, UniProt O00444); test: KinomeScan; type: binding; conditions: read-out: % control
T31 construct: purchased DiscoveRx KINOMEscan

SGK3 = biological target: T32, SGK3 (Homo sapiens, UniProt Q96BR1); test: KinomeScan; type: binding; conditions: read-out: % control
T32 construct: purchased DiscoveRx KINOMEscan

GRK1 = biological target: T33, GRK1 (Homo sapiens, UniProt Q15835); test: KinomeScan; type: binding; conditions: read-out: % control
T33 construct: purchased DiscoveRx KINOMEscan
T33 sequence (Q15835 whole entry): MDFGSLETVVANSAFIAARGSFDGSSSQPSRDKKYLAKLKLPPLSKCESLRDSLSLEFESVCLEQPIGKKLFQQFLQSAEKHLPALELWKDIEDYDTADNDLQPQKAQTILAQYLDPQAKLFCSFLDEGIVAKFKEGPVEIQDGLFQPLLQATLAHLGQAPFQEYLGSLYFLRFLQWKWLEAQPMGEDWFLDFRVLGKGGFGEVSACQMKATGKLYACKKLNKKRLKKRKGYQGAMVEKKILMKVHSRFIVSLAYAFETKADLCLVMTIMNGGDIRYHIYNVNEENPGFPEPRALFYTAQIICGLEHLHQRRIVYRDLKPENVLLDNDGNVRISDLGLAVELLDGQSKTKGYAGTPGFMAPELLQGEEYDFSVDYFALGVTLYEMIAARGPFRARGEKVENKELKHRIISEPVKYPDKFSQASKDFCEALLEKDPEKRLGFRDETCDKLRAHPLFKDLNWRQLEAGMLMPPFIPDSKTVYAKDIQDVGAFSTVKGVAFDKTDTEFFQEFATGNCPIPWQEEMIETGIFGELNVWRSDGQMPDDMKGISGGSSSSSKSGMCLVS

PKN2 = biological target: T34, PKN2 (Homo sapiens, UniProt Q16513); test: KinomeScan; type: binding; conditions: read-out: % control
T34 construct: purchased DiscoveRx KINOMEscan

ROCK1 = biological target: T35, ROCK1 (Homo sapiens, UniProt Q13464); test: KinomeScan; type: binding; conditions: read-out: % control
T35 construct: purchased DiscoveRx KINOMEscan

ERK4 = biological target: T36, ERK4 (Homo sapiens, UniProt P31152); test: KinomeScan; type: binding; conditions: read-out: % control
T36 construct: purchased DiscoveRx KINOMEscan

[2] = system: BaF3-TEL-EGFR-T790M-C797S; test: Anti-proliferation, BaF3 isogenic cell lines (CellTiter-Glo); type: cell-based; conditions: Mus musculus, 72 hours, triplet testing
ZAK = biological target: T37, ZAK (Homo sapiens, UniProt Q9NYL2); test: KinomeScan; type: binding; conditions: read-out: % control
T37 construct: purchased DiscoveRx KINOMEscan

JNK3 = biological target: T38, JNK3 (Homo sapiens, UniProt P53779); test: KinomeScan; type: binding; conditions: read-out: % control
T38 construct: purchased DiscoveRx KINOMEscan

BaF3-FL-EGFR-del19-T790M = test: Anti-proliferation, BaF3 isogenic cell lines (CellTiter-Glo); type: cell-based; conditions: Mus musculus, 72 hours, triplet testing
CAMK1 = biological target: T39, CAMK1 (Homo sapiens, UniProt Q14012); test: KinomeScan; type: binding; conditions: read-out: % control
T39 construct: purchased DiscoveRx KINOMEscan
T39 sequence (Q14012 whole entry): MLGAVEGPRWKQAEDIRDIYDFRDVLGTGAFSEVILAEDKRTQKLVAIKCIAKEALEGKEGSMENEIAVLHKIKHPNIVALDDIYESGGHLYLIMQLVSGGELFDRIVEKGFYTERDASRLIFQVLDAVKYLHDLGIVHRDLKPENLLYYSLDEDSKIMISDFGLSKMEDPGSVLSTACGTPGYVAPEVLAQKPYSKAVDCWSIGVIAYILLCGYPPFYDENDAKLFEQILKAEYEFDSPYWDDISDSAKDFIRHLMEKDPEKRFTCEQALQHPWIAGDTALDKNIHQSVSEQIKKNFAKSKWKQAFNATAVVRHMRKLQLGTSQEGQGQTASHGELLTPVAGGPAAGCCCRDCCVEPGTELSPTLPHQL

TXK = biological target: T40, TXK (Homo sapiens, UniProt P42681); test: KinomeScan; type: binding; conditions: read-out: % control
T40 construct: purchased DiscoveRx KINOMEscan
T40 sequence (P42681 whole entry): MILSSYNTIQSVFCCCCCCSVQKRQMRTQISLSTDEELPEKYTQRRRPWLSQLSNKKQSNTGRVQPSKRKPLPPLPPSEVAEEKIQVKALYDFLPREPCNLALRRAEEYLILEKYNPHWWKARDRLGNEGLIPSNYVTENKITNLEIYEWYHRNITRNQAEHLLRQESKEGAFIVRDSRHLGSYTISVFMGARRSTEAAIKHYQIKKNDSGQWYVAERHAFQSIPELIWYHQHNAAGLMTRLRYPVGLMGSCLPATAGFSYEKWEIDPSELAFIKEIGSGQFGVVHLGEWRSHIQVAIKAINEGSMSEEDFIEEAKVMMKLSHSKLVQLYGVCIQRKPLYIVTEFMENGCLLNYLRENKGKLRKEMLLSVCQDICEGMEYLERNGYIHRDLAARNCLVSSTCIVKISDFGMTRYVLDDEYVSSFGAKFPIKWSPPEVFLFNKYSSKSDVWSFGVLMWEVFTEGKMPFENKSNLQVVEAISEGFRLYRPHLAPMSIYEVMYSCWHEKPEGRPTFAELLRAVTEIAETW

C=CC(=O)N1CCC[C@@H](n2nc(-c3ccc(OCc4cccc(C)n4)c(Cl)c3)c3c(N)ncnc32)C1 [CHMFL-EGFR-26]
remaining binding at 1 µM (HIPK4): 100% | remaining binding at 1 µM (NEK1): 92% | remaining binding at 1 µM (PAK3): 62% | remaining binding at 1 µM (MAP3K15): 100% | remaining binding at 1 µM (CDC2L5): 100% | remaining binding at 1 µM (BIKE): 96% | remaining binding at 1 µM (PIK3CA(M1043I)): 100% | remaining binding at 1 µM (ULK1): 85% | remaining binding at 1 µM (BLK): 0.35% | remaining binding at 1 µM (PAK1): 59% | remaining binding at 1 µM (MLCK): 100% | remaining binding at 1 µM (NEK9): 94% | remaining binding at 1 µM (PRKCH): 70% | remaining binding at 1 µM (WNK1): 100% | remaining binding at 1 µM (CDC2L2): 97% | remaining binding at 1 µM (LCK): 33% | remaining binding at 1 µM (FER): 56% | remaining binding at 1 µM (NEK10): 99% | remaining binding at 1 µM (TNK1): 64% | remaining binding at 1 µM (p38-delta): 83% | remaining binding at 1 µM (MET(Y1235D)): 55% | remaining binding at 1 µM (TEC): 13% | remaining binding at 1 µM (CDK11): 100% | IC50 (EGFR(ErbB1)): 71 nM and 71.4 nM | remaining binding at 1 µM (NLK): 70% | GI50 (BaF3-TEL-EGFR-L858R): < 0.3 nM | remaining binding at 1 µM (PLK3): 85% | remaining binding at 1 µM (IKK-beta): 98% | remaining binding at 1 µM (CAMKK2): 75% | remaining binding at 1 µM (PLK2): 89% | remaining binding at 1 µM [1]: 100% | remaining binding at 1 µM (ERK8): 91% | remaining binding at 1 µM (PLK4): 99% | remaining binding at 1 µM (SGK3): 83% | remaining binding at 1 µM (GRK1): 88% | remaining binding at 1 µM (PKN2): 53% | remaining binding at 1 µM (ROCK1): 100% | remaining binding at 1 µM (ERK4): 83% | GI50 [2]: 3700 nM | remaining binding at 1 µM (ZAK): 100% | remaining binding at 1 µM (JNK3): 86% | GI50 (BaF3-FL-EGFR-del19-T790M): < 0.3 nM | remaining binding at 1 µM (CAMK1): 100% | remaining binding at 1 µM (TXK): 15%
